# Values of other authors as cited in patent US20110071026A1, “LOW VISCOSITY, AQUEOUS […] CONCENTRATES” (priority 2009, published 2011).
# Details: at 25° C.; acid form
smiles,measurement,value
"O=C(O)CNCP(=O)(O)O [glyphosate, N-(phosphonomethyl)glycine]",solubility in water,about 12 g/L
